Reference: publication PMC10098121, “Amphipathic barbiturates as marine product mimics with cytolytic and immunogenic effects on head and neck squamous cell carcinoma cell lines” (Frontiers in Pharmacology, 2023)

Each compound was assayed on UT-SCC-24B (assay: High throughput drug screening (CellTiter-Glo, DSS)). Details: 72 h, 10-100,000 nM, myogel, non-irradiated.
Type: cell-based, human
Protocol: (§1) The MPMs were screened against a panel of […] different cell lines (HSC-3, UT-SCC-8, UT-SCC-24A, UT-SCC-24B, UT-SCC-42A, UT-SCC-42B and NOF) at the High Throughput Biomedicine Unit (HTB) at the Institute for Molecular Medicine Finland (FIMM). On day 1, black-walled 384-well plates were coated with 5 µl diluted myogel (0.5 mg/ml) per well using an automated reagent dispenser (MultiFlo FX, BioTek, Winooski, VT, United States). On day 2, 500 cells per well were seeded in 20 µl of complete media using the MultiFlo FX (BioTek), and the cells were left to adhere overnight. On day 3, the MPMs, cisplatin, DMSO and Benzethonium chloride were added to the cells using an automatic liquid handler (Echo 550, Labcyte Inc., San Jose, CA, United States). Cisplatin and the MPMs were added to yield five different concentrations in a ten-fold dilution series ranging from 10 to 100,000 nM. Each concentration was tested in triplicate wells. DMSO (0.1%) and benzethonium chloride (100 µM) served as negative and positive control, respectively. Three hours later, some of the plates were irradiated with 2 Gy in a gamma irradiator (OB29/4, STS, Braunschweig, Germany). All plates were taken to the irradiation room to ensure similar handling of the plates. 72 h later, the plates were cooled to room temperature before 25 µl of CellTiter-Glo 2.0 reagent (Promega, Madison, WI, USA) was added to each well using the MultiFlo FX (BioTek). Next, the plates were centrifuged for 5 min at 1,000 rpm before the luminescence signal was measured with the PHERAstar FS HT reader (BMG LABTECH GmbH, Ortenberg, Germany). The raw data was analyzed with the Breeze software (https://breeze.fmm.fi), which normalized the luminescence signal from treated cells against the signal from negative and positive control cells to calculate the percentage of inhibition and generate dose-response curves, which were then used to calculate drug sensitivity scores (DSS). The DSS is a parameter which combines the IC50, the slope of the dose-response curve, and the minimum and maximum responses into a single metric, as previously described ([Yadav et al., 2014]). Quality control was performed by calculation of the Z′-factor, which was >0.7 for all cell lines, indicating high quality of the assay ([Zhang et al., 1999]).

Structure (SMILES)	drug sensitivity score (DSS)
NCCN1C(=O)N(CCN)C(=O)C(CCCc2ccccc2)(CCCc2ccccc2)C1=O [MPM-2:0]	18,3
CN(C)CCCN1C(=O)N(CCCN(C)C)C(=O)C(CCCc2ccccc2)(CCCc2ccccc2)C1=O [MPM-3:2]	18,4
CN(C)CCCCN1C(=O)N(CCCCN(C)C)C(=O)C(CCCc2ccccc2)(CCCc2ccccc2)C1=O [MPM-4:2]	18,9

Same assay, conditions: DSS irradiated (2 Gy) minus DSS non-irradiated, >5 synergy, <–5 antagonism

Structure (SMILES)	delta DSS (ΔDSS)
NCCN1C(=O)N(CCN)C(=O)C(CCCc2ccccc2)(CCCc2ccccc2)C1=O [MPM-2:0]	-0,1
CN(C)CCCN1C(=O)N(CCCN(C)C)C(=O)C(CCCc2ccccc2)(CCCc2ccccc2)C1=O [MPM-3:2]	0,1
CN(C)CCCCN1C(=O)N(CCCCN(C)C)C(=O)C(CCCc2ccccc2)(CCCc2ccccc2)C1=O [MPM-4:2]	-0,5

These compounds were tested on HSC-3 in the same assay as above. Details: HSC-3, 72 h, 10-100,000 nM, myogel, non-irradiated.
Type: cell-based, human
Protocol: as §1

Structure (SMILES)	drug sensitivity score (DSS)
NCCN1C(=O)N(CCN)C(=O)C(CCCc2ccccc2)(CCCc2ccccc2)C1=O [MPM-2:0]	19
CN(C)CCCN1C(=O)N(CCCN(C)C)C(=O)C(CCCc2ccccc2)(CCCc2ccccc2)C1=O [MPM-3:2]	17,9
CN(C)CCCCN1C(=O)N(CCCCN(C)C)C(=O)C(CCCc2ccccc2)(CCCc2ccccc2)C1=O [MPM-4:2]	18,2

Same assay, conditions: HSC-3; DSS irradiated (2 Gy) minus DSS non-irradiated; >5 synergy, <–5 antagonism

Structure (SMILES)	delta DSS (ΔDSS)
NCCN1C(=O)N(CCN)C(=O)C(CCCc2ccccc2)(CCCc2ccccc2)C1=O [MPM-2:0]	-0,7
CN(C)CCCN1C(=O)N(CCCN(C)C)C(=O)C(CCCc2ccccc2)(CCCc2ccccc2)C1=O [MPM-3:2]	-0,2
CN(C)CCCCN1C(=O)N(CCCCN(C)C)C(=O)C(CCCc2ccccc2)(CCCc2ccccc2)C1=O [MPM-4:2]	0,3

The compounds below were run on UT-SCC-106A in the same assay as above. Details: 72 h, 10-100,000 nM, myogel, non-irradiated.
Type: cell-based, human
Protocol: as §1

Structure (SMILES)	drug sensitivity score (DSS)
NCCN1C(=O)N(CCN)C(=O)C(CCCc2ccccc2)(CCCc2ccccc2)C1=O [MPM-2:0]	18
CN(C)CCCN1C(=O)N(CCCN(C)C)C(=O)C(CCCc2ccccc2)(CCCc2ccccc2)C1=O [MPM-3:2]	18,6
CN(C)CCCCN1C(=O)N(CCCCN(C)C)C(=O)C(CCCc2ccccc2)(CCCc2ccccc2)C1=O [MPM-4:2]	19,5

Same assay, conditions: DSS irradiated (2 Gy) minus DSS non-irradiated, >5 synergy, <–5 antagonism

Structure (SMILES)	delta DSS (ΔDSS)
NCCN1C(=O)N(CCN)C(=O)C(CCCc2ccccc2)(CCCc2ccccc2)C1=O [MPM-2:0]	-0,5
CN(C)CCCN1C(=O)N(CCCN(C)C)C(=O)C(CCCc2ccccc2)(CCCc2ccccc2)C1=O [MPM-3:2]	-0,2
CN(C)CCCCN1C(=O)N(CCCCN(C)C)C(=O)C(CCCc2ccccc2)(CCCc2ccccc2)C1=O [MPM-4:2]	-0,2

The compounds below were run on NOF (normal oral fibroblasts) in the same assay as above. Details: 72 h, 10-100,000 nM, myogel, non-irradiated.
Type: cell-based, human
Protocol: as §1

Structure (SMILES)	drug sensitivity score (DSS)
NCCN1C(=O)N(CCN)C(=O)C(CCCc2ccccc2)(CCCc2ccccc2)C1=O [MPM-2:0]	18,3
CN(C)CCCN1C(=O)N(CCCN(C)C)C(=O)C(CCCc2ccccc2)(CCCc2ccccc2)C1=O [MPM-3:2]	19,3
CN(C)CCCCN1C(=O)N(CCCCN(C)C)C(=O)C(CCCc2ccccc2)(CCCc2ccccc2)C1=O [MPM-4:2]	22,6

Same assay, conditions: DSS irradiated (2 Gy) minus DSS non-irradiated, >5 synergy, <–5 antagonism

Structure (SMILES)	delta DSS (ΔDSS)
NCCN1C(=O)N(CCN)C(=O)C(CCCc2ccccc2)(CCCc2ccccc2)C1=O [MPM-2:0]	-0,7
CN(C)CCCN1C(=O)N(CCCN(C)C)C(=O)C(CCCc2ccccc2)(CCCc2ccccc2)C1=O [MPM-3:2]	-1,6
CN(C)CCCCN1C(=O)N(CCCCN(C)C)C(=O)C(CCCc2ccccc2)(CCCc2ccccc2)C1=O [MPM-4:2]	1,2

What follows are compounds tested on UT-SCC-42B in the same assay as above. Details: 72 h, 10-100,000 nM, myogel, non-irradiated.
Type: cell-based, human
Protocol: as §1

Structure (SMILES)	drug sensitivity score (DSS)
NCCN1C(=O)N(CCN)C(=O)C(CCCc2ccccc2)(CCCc2ccccc2)C1=O [MPM-2:0]	18,7
CN(C)CCCN1C(=O)N(CCCN(C)C)C(=O)C(CCCc2ccccc2)(CCCc2ccccc2)C1=O [MPM-3:2]	15,7
CN(C)CCCCN1C(=O)N(CCCCN(C)C)C(=O)C(CCCc2ccccc2)(CCCc2ccccc2)C1=O [MPM-4:2]	16,6

Same assay, conditions: DSS irradiated (2 Gy) minus DSS non-irradiated, >5 synergy, <–5 antagonism

Structure (SMILES)	delta DSS (ΔDSS)
NCCN1C(=O)N(CCN)C(=O)C(CCCc2ccccc2)(CCCc2ccccc2)C1=O [MPM-2:0]	-0,1
CN(C)CCCN1C(=O)N(CCCN(C)C)C(=O)C(CCCc2ccccc2)(CCCc2ccccc2)C1=O [MPM-3:2]	0,3
CN(C)CCCCN1C(=O)N(CCCCN(C)C)C(=O)C(CCCc2ccccc2)(CCCc2ccccc2)C1=O [MPM-4:2]	-0,4

What follows are compounds tested on UT-SCC-24A in the same assay as above. Details: 72 h, 10-100,000 nM, myogel, non-irradiated.
Type: cell-based, human
Protocol: as §1

Structure (SMILES)	drug sensitivity score (DSS)
NCCN1C(=O)N(CCN)C(=O)C(CCCc2ccccc2)(CCCc2ccccc2)C1=O [MPM-2:0]	18,7
CN(C)CCCN1C(=O)N(CCCN(C)C)C(=O)C(CCCc2ccccc2)(CCCc2ccccc2)C1=O [MPM-3:2]	17,9
CN(C)CCCCN1C(=O)N(CCCCN(C)C)C(=O)C(CCCc2ccccc2)(CCCc2ccccc2)C1=O [MPM-4:2]	18,4

Same assay, conditions: DSS irradiated (2 Gy) minus DSS non-irradiated, >5 synergy, <–5 antagonism

Structure (SMILES)	delta DSS (ΔDSS)
NCCN1C(=O)N(CCN)C(=O)C(CCCc2ccccc2)(CCCc2ccccc2)C1=O [MPM-2:0]	-0,7
CN(C)CCCN1C(=O)N(CCCN(C)C)C(=O)C(CCCc2ccccc2)(CCCc2ccccc2)C1=O [MPM-3:2]	-0,2
CN(C)CCCCN1C(=O)N(CCCCN(C)C)C(=O)C(CCCc2ccccc2)(CCCc2ccccc2)C1=O [MPM-4:2]	-0,6

The compounds below were run on UT-SCC-8 in the same assay as above. Details: UT-SCC-8, 72 h, 10-100,000 nM, myogel, non-irradiated.
Type: cell-based, human
Protocol: as §1

Structure (SMILES)	drug sensitivity score (DSS)
NCCN1C(=O)N(CCN)C(=O)C(CCCc2ccccc2)(CCCc2ccccc2)C1=O [MPM-2:0]	19,2
CN(C)CCCN1C(=O)N(CCCN(C)C)C(=O)C(CCCc2ccccc2)(CCCc2ccccc2)C1=O [MPM-3:2]	17,8
CN(C)CCCCN1C(=O)N(CCCCN(C)C)C(=O)C(CCCc2ccccc2)(CCCc2ccccc2)C1=O [MPM-4:2]	18,1

Same assay, conditions: UT-SCC-8; DSS irradiated (2 Gy) minus DSS non-irradiated; >5 synergy, <–5 antagonism

Structure (SMILES)	delta DSS (ΔDSS)
NCCN1C(=O)N(CCN)C(=O)C(CCCc2ccccc2)(CCCc2ccccc2)C1=O [MPM-2:0]	0,6
CN(C)CCCN1C(=O)N(CCCN(C)C)C(=O)C(CCCc2ccccc2)(CCCc2ccccc2)C1=O [MPM-3:2]	0,1
CN(C)CCCCN1C(=O)N(CCCCN(C)C)C(=O)C(CCCc2ccccc2)(CCCc2ccccc2)C1=O [MPM-4:2]	0,5

The compounds below were run on UT-SCC-42A in the same assay as above. Details: 72 h, 10-100,000 nM, myogel, non-irradiated.
Type: cell-based, human
Protocol: as §1

Structure (SMILES)	drug sensitivity score (DSS)
NCCN1C(=O)N(CCN)C(=O)C(CCCc2ccccc2)(CCCc2ccccc2)C1=O [MPM-2:0]	19
CN(C)CCCN1C(=O)N(CCCN(C)C)C(=O)C(CCCc2ccccc2)(CCCc2ccccc2)C1=O [MPM-3:2]	16
CN(C)CCCCN1C(=O)N(CCCCN(C)C)C(=O)C(CCCc2ccccc2)(CCCc2ccccc2)C1=O [MPM-4:2]	17

Same assay, conditions: DSS irradiated (2 Gy) minus DSS non-irradiated, >5 synergy, <–5 antagonism

Structure (SMILES)	delta DSS (ΔDSS)
NCCN1C(=O)N(CCN)C(=O)C(CCCc2ccccc2)(CCCc2ccccc2)C1=O [MPM-2:0]	-0,7
CN(C)CCCN1C(=O)N(CCCN(C)C)C(=O)C(CCCc2ccccc2)(CCCc2ccccc2)C1=O [MPM-3:2]	0,6
CN(C)CCCCN1C(=O)N(CCCCN(C)C)C(=O)C(CCCc2ccccc2)(CCCc2ccccc2)C1=O [MPM-4:2]	0,4

What follows are compounds tested on human red blood cells (assay: Hemolysis assay). Details: Homo sapiens, Erythrocyte; 1 h, 37°C; highest concentration tested 500 μM; average of three experiments; read-out: EC50 hemolytic activity against human red blood cells.
Type: cell-based
Protocol: The hemolytic effect of the MPMs was determined using a hemolysis assay as previously described ([Paulsen et al., 2021]). Briefly, hemolysis was determined using a heparinized fraction (10 IU/mL) of freshly drawn blood. The blood collected in ethylenediaminetetraacetic acid-containing test tubes (Vacutest, KIMA, Arzergrande, Italy) was used for the determination of the hematocrit (hct). The heparinized blood was washed 3 × with pre-warmed phosphate-buffered saline (PBS) and adjusted to a final hct of 4%. MPMs in DMSO (50 mM) were added to a 96-well polypropylene V-bottom plate (NUNC, Fisher Scientific, Oslo, Norway) and serially diluted. The test concentration range was 4–500 μM with DMSO contents ≤1%. A solution of 1% triton X-100 was used as a positive control for 100% hemolysis. As a negative control, a solution of 1% DMSO in PBS was included. Red blood cells (1% v/v final concentration) were added to the well plate and incubated at 37°C and 800 rpm for 1 h. After centrifugation (5 min, 3000 g), 100 μL from each well was transferred to a 96-well flat-bottomed microtiter plate, and absorbance was measured at 545 nm with a microplate reader (VersaMaxTM, Molecular Devices, Sunnyvale, CA, United States). The percentage of hemolysis was calculated as the ratio of the absorbance in the MPM treated and surfactant-treated samples, corrected for the PBS background. Three independent experiments were performed, and EC50 values are presented as averages.

Structure (SMILES)	EC50
NCCN1C(=O)N(CCN)C(=O)C(CCCc2ccccc2)(CCCc2ccccc2)C1=O [MPM-2:0]	379 µM
CN(C)CCCN1C(=O)N(CCCN(C)C)C(=O)C(CCCc2ccccc2)(CCCc2ccccc2)C1=O [MPM-3:2]	> 500 µM
CN(C)CCCCN1C(=O)N(CCCCN(C)C)C(=O)C(CCCc2ccccc2)(CCCc2ccccc2)C1=O [MPM-4:2]	> 500 µM
